Experimental data as given in PubChem BioAssay (NCI).
Several values for one entry are separate records, joined by “and”; a condition that tells them apart may be missing. Identical values can stand only once.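 Interpolation was linear, between the two tested concentrations surrounding the appropriate level; five concentrations were tested over 48 hours in 96-well plates. GI50 = concentration required for 50% inhibition of growth. TGI: total growth inhibition.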

How the values were obtained:
Assay in all cases: inhibition of tumour cell growth, NCI panel, 48 h
ACHN renal = system: ACHN renal
EKVX NSCLC = system: EKVX NSCLC
NCI/ADR-RES ovarian = system: NCI/ADR-RES ovarian
OVCAR-3 ovarian = system: OVCAR-3 ovarian
RXF 393 renal = system: RXF 393 renal
SF-268 CNS = system: SF-268 CNS
SF-295 CNS = system: SF-295 CNS
SF-539 CNS = system: SF-539 CNS
SN12C renal = system: SN12C renal
TK-10 renal = system: TK-10 renal

| Structure (SMILES) | GI50 (ACHN renal) | TGI (ACHN renal) | GI50 (EKVX NSCLC) | TGI (EKVX NSCLC) | GI50 (NCI/ADR-RES ovarian) | TGI (NCI/ADR-RES ovarian) | GI50 (OVCAR-3 ovarian) | TGI (OVCAR-3 ovarian) | GI50 (RXF 393 renal) | TGI (RXF 393 renal) | GI50 (SF-268 CNS) | TGI (SF-268 CNS) | GI50 (SF-295 CNS) | TGI (SF-295 CNS) | GI50 (SF-539 CNS) | TGI (SF-539 CNS) | GI50 (SN12C renal) | TGI (SN12C renal) | GI50 (TK-10 renal) [µM] | TGI (TK-10 renal) |
| --- | --- | --- | --- | --- | --- | --- | --- | --- | --- | --- | --- | --- | --- | --- | --- | --- | --- | --- | --- | --- |
| N#CC1=C(N)NC(=O)C(C#N)C12Nc1ccccc1S2 (stereo not drawn) | > 100 µM | > 100 µM | > 100 µM | > 100 µM | 94.9 µM | > 100 µM | 32.6 µM | > 100 µM | 20.4 µM | > 100 µM | > 100 µM | > 100 µM | 50.6 µM | > 100 µM | > 100 µM | > 100 µM | > 100 µM | > 100 µM | 38.9 | > 100 µM |
| O=[N+]([O-])c1ccccc1/C=N\NC(=S)N/N=C/c1ccccc1[N+](=O)[O-] | 7.53 µM | > 100 µM | 8.11 µM | > 100 µM | 2.66 µM | > 100 µM | 1.95 µM | 4.72 µM | 11.6 µM | > 100 µM | 5.73 µM | > 100 µM | 1.87 µM | 7.41 µM | 4.17 µM | 58.6 µM | 10.6 µM | > 100 µM | 13.7 | > 100 µM |
| COc1cc(/C=C/C(=O)c2c(C)n([O-])c3ccccc3[n+]2=O)cc(OC)c1OC | 10.8 µM | 22.7 µM | 2.43 µM | 6.86 µM | 4.02 µM | 20 µM | 5.17 µM | 18.6 µM | 5.85 µM | 20.4 µM | 5.65 µM | 25.7 µM | 4.34 µM | 14.8 µM | 11.5 µM | 23.7 µM | 5.82 µM | 20.3 µM | 11.3 | 24 µM |
| NC(CSC(c1ccccc1)(c1ccccc1)c1ccccc1)C(=O)O (stereo not drawn) | 20.2 µM and 9.65 µM | 79.5 µM and > 100 µM | 3.24 µM | 16 µM | 10.9 µM | 48.2 µM and > 100 µM | 2.46 µM and 2.18 µM | 9.48 µM and 27.9 µM and 13 µM | 0.708 µM and 0.454 µM | 22.8 µM and > 100 µM | 4.35 µM and 1.71 µM | 63.3 µM and 85.7 µM | 0.485 µM and 0.522 µM and 2.65 µM | – | 0.874 µM and 0.459 µM | 10.6 µM and 3.01 µM and 3.26 µM | 2.99 µM and 0.877 µM | 23.8 µM and 68.3 µM and > 100 µM | 6.22 | 83.5 µM |
| NCC(=O)Nc1ccc(Cl)cc1C(=O)c1ccc[nH]1 | – | > 100 µM | – | > 100 µM | – | > 100 µM | – | > 100 µM | – | > 100 µM | – | > 100 µM | – | > 100 µM | – | > 100 µM | – | > 100 µM | – | > 100 µM |
| CCc1nc(N)nc(N)c1C#CC(C)c1ccc(-c2ccncc2)cc1Cl (stereo not drawn) | 0.00775 µM and 0.0304 µM | 4.57 µM and 13.7 µM | 0.0259 µM and 0.0772 µM | 2.5 µM and 12.6 µM | 0.0096 µM and 0.0366 µM | 5.11 µM and 9.3 µM | 0.0421 µM and 0.098 µM | 2.06 µM and 13.3 µM | 0.141 µM and 0.312 µM | 2.12 µM and 7.44 µM | 0.0287 µM and 0.0682 µM | 3.2 µM and 16.8 µM | 0.00508 µM and 0.0141 µM | 0.809 µM and 4.24 µM | 0.0159 µM and 0.0423 µM | 1.56 µM and 10.4 µM | 0.0189 µM and 0.148 µM | 5.67 µM and 17.2 µM | – | 4.46 µM and 6.39 µM |
| COc1ccc2nc3cc(Cl)ccc3c(Nc3ccccc3-c3ccccc3Nc3c4ccc(Cl)cc4nc4ccc(OC)cc34)c2c1 | – | > 59.2 µM | – | > 100 µM | – | > 100 µM | – | > 78.4 µM | – | > 53.5 µM | – | > 72.7 µM | – | > 76.2 µM | – | > 67.2 µM | – | > 84.4 µM | – | > 100 µM |
| CCN(Cc1cc(Cl)cc(C)c1O)Cc1c(O)ccc2ccccc12 | – | 31.5 µM | – | 32.8 µM | – | 32 µM | – | 29 µM | – | 31.2 µM | – | 34.8 µM | – | 31.3 µM | – | 30 µM | – | 37 µM | – | 31 µM |
| O=NNc1ccc(-c2ccccc2)cn1 | – | 15 µM | – | > 51.2 µM | – | > 43.1 µM | – | 53.1 µM | – | 12.7 µM | – | 29.2 µM | – | 62.2 µM | – | 80.8 µM | – | > 35.1 µM | – | 69 µM |
| O=CNC(Cc1cnc[nH]1)C(=O)O (stereo not drawn) | – | > 100 µM | – | > 100 µM | – | > 100 µM | – | > 100 µM | – | > 100 µM | – | > 100 µM | – | > 100 µM | – | > 100 µM | – | > 100 µM | – | > 100 µM |
